# Reference: ChEMBL document CHEMBL4308908, “Lamellarin-inspired potent topoisomerase I inhibitors with the unprecedented benzo[g][1]benzopyrano[4,3-b]indol-6(13H)-one scaffold” (Bioorg Med Chem, 2019)
# The source made the active and inactive calls. The rule behind the calls is not given here.
# What was measured:
# HCT-116 = assay: Antiproliferative activity against human HCT116 cells after 48 hrs by SRB assay; format: functional; conditions: HCT-116, 48 h
# ACHN = assay: Antiproliferative activity against human ACHN cells after 48 hrs by SRB assay; format: functional
# MKN-7 = assay: Antiproliferative activity against human MKN7 cells after 48 hrs by SRB assay; format: functional; conditions: MKN-7, 48 h
# NCI-H522 = assay: Antiproliferative activity against human NCI-H522 cells after 48 hrs by SRB assay; format: functional; conditions: NCI-H522, 48 h
# SF-295 = assay: Antiproliferative activity against human SF295 cells after 48 hrs by SRB assay; format: functional; conditions: SF-295, 48 h
# MKN-45 = assay: Antiproliferative activity against human MKN45 cells after 48 hrs by SRB assay; format: functional; conditions: MKN-45, 48 h
# OVCAR-3 = assay: Antiproliferative activity against human OVCAR3 cells after 48 hrs by SRB assay; format: functional; conditions: OVCAR-3, 48 h
# LOX IMVI = assay: Antiproliferative activity against human LOXIMVI cells after 48 hrs by SRB assay; format: functional
# [1] = target: T1, DNA topoisomerase I (Bos taurus) (UniProt F1MN93); assay: Inhibition of calf thymus DNA topoisomerase 1 assessed as reduction in enzyme-mediated relaxation of supercoiled pBR322 plasmid DNA at 10 uM after 30 mins by ethidium bromide staining-based agarose gel electrophoresis
# T1 sequence (whole entry): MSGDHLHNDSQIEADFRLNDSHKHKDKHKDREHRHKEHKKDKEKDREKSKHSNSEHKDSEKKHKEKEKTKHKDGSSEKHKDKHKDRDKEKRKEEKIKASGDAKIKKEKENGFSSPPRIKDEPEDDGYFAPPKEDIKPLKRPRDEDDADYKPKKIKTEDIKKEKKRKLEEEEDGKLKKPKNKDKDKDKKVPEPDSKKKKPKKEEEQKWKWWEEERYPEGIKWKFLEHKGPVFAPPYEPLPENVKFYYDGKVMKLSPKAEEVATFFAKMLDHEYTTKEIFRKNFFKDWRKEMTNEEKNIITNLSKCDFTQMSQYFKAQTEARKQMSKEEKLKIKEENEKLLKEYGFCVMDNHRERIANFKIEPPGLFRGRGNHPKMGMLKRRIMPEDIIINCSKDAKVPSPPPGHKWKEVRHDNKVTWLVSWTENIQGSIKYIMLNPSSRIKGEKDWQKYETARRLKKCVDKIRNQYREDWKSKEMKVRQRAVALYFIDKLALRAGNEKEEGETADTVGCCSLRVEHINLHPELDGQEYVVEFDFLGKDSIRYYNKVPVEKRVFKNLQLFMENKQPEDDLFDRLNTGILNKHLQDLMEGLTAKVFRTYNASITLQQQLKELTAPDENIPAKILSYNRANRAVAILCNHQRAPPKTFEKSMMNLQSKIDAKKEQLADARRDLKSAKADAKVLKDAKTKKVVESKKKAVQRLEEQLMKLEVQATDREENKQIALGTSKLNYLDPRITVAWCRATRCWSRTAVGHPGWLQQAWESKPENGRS
# [2] = Antiproliferative activity against human HBC4 cells after 48 hrs by SRB assay; format: functional; conditions: HBC4, 48 h
# MKN-1 = assay: Antiproliferative activity against human MKN1 cells after 48 hrs by SRB assay; format: functional; conditions: MKN-1, 48 h
# [3] = Antiproliferative activity against human HBC5 cells after 48 hrs by SRB assay; format: functional; conditions: HBC5, 48 h
# DU-145 = assay: Antiproliferative activity against human DU145 cells after 48 hrs by SRB assay; format: functional; conditions: DU-145, 48 h
# SNB-75 = assay: Antiproliferative activity against human SNB75 cells after 48 hrs by SRB assay; format: functional; conditions: SNB-75, 48 h
# NCI-H226 = assay: Antiproliferative activity against human NCI-H226 cells after 48 hrs by SRB assay; format: functional; conditions: NCI-H226, 48 h
# SK-OV-3 = assay: Antiproliferative activity against human SKOV3 cells after 48 hrs by SRB assay; format: functional; conditions: SK-OV-3, 48 h
# NCI-H23 = assay: Antiproliferative activity against human NCI-H23 cells after 48 hrs by SRB assay; format: functional; conditions: NCI-H23, 48 h
# DMS-114 = assay: Antiproliferative activity against human DMS114 cells after 48 hrs by SRB assay; format: functional; conditions: DMS-114, 48 h
# NCI-H460 = assay: Antiproliferative activity against human NCI-H460 cells after 48 hrs by SRB assay; format: functional; conditions: NCI-H460, 48 h
# MDA-MB-231 = assay: Antiproliferative activity against human MDA-MB-231 cells after 48 hrs by SRB assay; format: functional; conditions: MDA-MB-231, 48 h
# MKN-28 = assay: Antiproliferative activity against human MKN28 cells after 48 hrs by SRB assay; format: functional; conditions: MKN-28, 48 h
# [4] = Antiproliferative activity against human BSY1 cells after 48 hrs by SRB assay; format: functional; conditions: BSY-1, 48 h
# St-4 = assay: Antiproliferative activity against human St-4 cells after 48 hrs by SRB assay; format: functional; conditions: St-4, 48 h
# OVCAR-8 = assay: Antiproliferative activity against human OVCAR8 cells after 48 hrs by SRB assay; format: functional; conditions: OVCAR-8, 48 h
# [5] = target: T1, DNA topoisomerase I (Bos taurus); assay: Inhibition of calf thymus DNA topoisomerase 1 assessed as reduction in enzyme-mediated relaxation of supercoiled pBR322 plasmid DNA at 10 uM after 30 mins by agarose gel electrophoresis
# U-251 = assay: Antiproliferative activity against human U251 cells after 48 hrs by SRB assay; format: functional; conditions: U-251, 48 h
# MKN-74 = assay: Antiproliferative activity against human MKN74 cells after 48 hrs by SRB assay; format: functional; conditions: MKN-74, 48 h
# OVCAR-4 = assay: Antiproliferative activity against human OVCAR4 cells after 48 hrs by SRB assay; format: functional; conditions: OVCAR-4, 48 h
# HT-29 = assay: Antiproliferative activity against human HT-29 cells after 48 hrs by SRB assay; format: functional; conditions: HT-29, 48 h
# RXF 631 = assay: Antiproliferative activity against human RXF631L cells after 48 hrs by SRB assay; format: functional; conditions: RXF 631, 48 h
# A549 = assay: Antiproliferative activity against human A549 cells after 48 hrs by SRB assay; format: functional; conditions: A549, 48 h
# SNB-78 = assay: Antiproliferative activity against human SNB78 cells after 48 hrs by SRB assay; format: functional; conditions: SNB-78, 48 h
# HCC 2998 = assay: Antiproliferative activity against human HCC2998 cells after 48 hrs by SRB assay; format: functional; conditions: HCC 2998, 48 h
# PC-3 = assay: Antiproliferative activity against human PC3 cells after 48 hrs by SRB assay; format: functional; conditions: PC-3, 48 h
# HCT-15 = assay: Antiproliferative activity against human HCT15 cells after 48 hrs by SRB assay; format: functional; conditions: HCT-15, 48 h
# KM12 = assay: Antiproliferative activity against human KM12 cells after 48 hrs by SRB assay; format: functional; conditions: KM12, 48 h
# DMS-273 = assay: Antiproliferative activity against human DMS273 cells after 48 hrs by SRB assay; format: functional; conditions: DMS-273, 48 h
# MCF7 = assay: Antiproliferative activity against human MCF7 cells after 48 hrs by SRB assay; format: functional; conditions: MCF7, 48 h
# SF-539 = assay: Antiproliferative activity against human SF539 cells after 48 hrs by SRB assay; format: functional; conditions: SF-539, 48 h
# OVCAR-5 = assay: Antiproliferative activity against human OVCAR5 cells after 48 hrs by SRB assay; format: functional; conditions: OVCAR-5, 48 h
# SF-268 = assay: Antiproliferative activity against human SF268 cells after 48 hrs by SRB assay; format: functional; conditions: SF-268, 48 h
smiles,measurement,setting,value
COc1cc2c(ccc3c4c(=O)oc5cc(O)c(OC)cc5c4n(C)c23)cc1O,GI50,HCT-116; read-out: GI50,8.8 nM
same,GI50,HCT-116; read-out: pGI50 (converted),8.91 nM
same,GI50,ACHN; read-out: GI50,< 1 nM
same,GI50,ACHN; read-out: pGI50 (converted),1 nM
same,GI50,MKN-7,45.7 nM
same,GI50,NCI-H522; read-out: GI50,1.8 nM
same,GI50,NCI-H522; read-out: pGI50 (converted),1.82 nM
same,GI50,SF-295,4.57 nM
same,GI50,MKN-45,32.4 nM
same,GI50,OVCAR-3,39.8 nM
same,GI50,LOX IMVI; read-out: GI50,2.6 nM
same,GI50,LOX IMVI; read-out: pGI50 (converted),2.57 nM
same,inhibition,[1],Active
same,GI50,[2],13.5 nM
same,GI50,MKN-1,37.1 nM
same,GI50,[3],95.5 nM
same,GI50,DU-145; read-out: GI50,2.5 nM
same,GI50,DU-145; read-out: pGI50 (converted),2.51 nM
same,GI50,SNB-75,8.13 nM
same,GI50,NCI-H226,89.1 nM
same,GI50,SK-OV-3; read-out: GI50,9.4 nM
same,GI50,SK-OV-3; read-out: pGI50 (converted),9.33 nM
same,GI50,NCI-H23,4.57 nM
same,GI50,DMS-114,3.89 nM
same,GI50,NCI-H460,2.14 nM
same,GI50,MDA-MB-231,115 nM
same,GI50,MKN-28; read-out: GI50,33 nM
same,GI50,MKN-28; read-out: pGI50 (converted),33.1 nM
same,GI50,[4],33.9 nM
same,GI50,St-4,10000 nM
same,GI50,OVCAR-8,20.4 nM
same,inhibition,[5],Active
same,GI50,U-251; read-out: GI50,1.3 nM
same,GI50,U-251; read-out: pGI50 (converted),1.32 nM
same,GI50,MKN-74,52.5 nM
same,GI50,OVCAR-4,26.9 nM
same,GI50,HT-29,3890 nM
same,GI50,RXF 631,4680 nM
same,GI50,A549,4.17 nM
same,GI50,SNB-78,200 nM
same,GI50,HCC 2998,39.8 nM
same,GI50,PC-3,132 nM
same,GI50,HCT-15,162 nM
same,GI50,KM12,46.8 nM
same,GI50,DMS-273,2.04 nM
same,GI50,MCF7; read-out: GI50,9.6 nM
same,GI50,MCF7; read-out: pGI50 (converted),9.55 nM
same,GI50,SF-539,2.82 nM
same,GI50,OVCAR-5,79.4 nM
same,GI50,SF-268,2.19 nM
